Results as given in US7544666B2, “NAP derivatives” (Industrial Technology Research Institute, priority 2005, dated 2009).

Columns and labels:
Caco-2 cell = assay: Stability in the Caco-2 cell system; assay type: in vitro ADME, human; details: 4-hour incubation in Caco-2 Transwell; relative to initial conc. = 100.00 (500 μM)
Experimental: (§1) The stability of the NAP derivatives prepared by EXAMPLE 1 was measured with the system of human colon cancer cell, Caco-2 cell. Caco-2 cells (1×10^5 cells) were first seeded into a polycarbonate film on the upper layer of a 12-well Transwell and incubated for 18 to 26 days at 37° C. The TEER of the Caco-2 cell monolayer was measured over 350 Ω×cm^2. The stability of the NAP derivatives in the Hanks' balanced salt solutions (HBSS) was measured by the concentration changes of NAP and the NAP derivatives incubated in the HBSS at 37° C. for 4 hours. The stability of the NAP derivatives in the Caco-2 cell system was measured by the procedure described below. NAP and the NAP derivatives in the HBSS were added into the upper layer of the Caco-2 cell-seeded Transwell. After 4-hour incubation, the concentration of NAP and the NAP derivatives in the upper and lower layers was measured and analyzed in comparison with the initial concentration (500 μM) by reverse HPLC at 210 nm.

Caco-2 cell monolayer = assay: Permeation to Caco-2 cell monolayer; assay type: in vitro ADME, human; design: unit not given here; details: 4-hour incubation, initial concentration 500 μM in upper layer
Experimental: The permeation of NAP and the NAP derivatives was examined using the Caco-2 cell system. Caco-2 cells (1×10^5 cells) were seeded into the polycarbonate film on the upper layer of a 12-well Transwell and incubated at 37° C. for 18 to 26 days. The TEER of the Caco cell monolayer was measured over 350 Ω×cm^2. NAP and the NAP derivatives in the HBSS were added into the upper layer of the Caco-2 cell-seeded Transwell. After 4-hour incubation, the concentration of NAP and the NAP derivatives in the upper and lower layers was measured and analyzed in comparison with the initial concentration (500 μM) by reverse phase HPLC at 210 nm.

[1] = test system: scopolamine-induced amnesia rats; assay: Morris water maze in scopolamine-induced amnesia rats; assay type: in vivo, rat; details: 0.25 mg/kg subcutaneous, 5 min after scopolamine 1 mg/kg i.p.; FIG. 11
Experimental: Scopolamine-induced amnesia […] were used in combination of Morris water maze, a memory and behavior analysis system, to assess the in vivo effects of the NAP derivative BMEC-NAP0701 and NAP.
Sprague-Dawley male rats with body weight of 220-250 g obtained from the National Laboratory Animal Center, Taiwan, were caged in an air-conditioned housing with a temperature of 23±1° C. and kept on an alternating 12-hour light and 12-hour dark schedule with sufficient feed and water. […]
Morris Water Maze was performed with a water maze device containing a stainless pool with a size of 160 cm in diameter, 50 cm in height, and 15 mm in thickness of the wall and a platform with a size of 11 cm in diameter, and 22 cm in height. […] The swimming time and track were recorded by VEDEOMEX-V video tracing system, video recorder, and monitor (Columbus Instruments) and analyzed by Water Maze Program (Columbus Instruments). […]
Late of the third day: Two to four hours after the third day training, the platform was removed from the pool. The trained rats were separately sent to quadrant I and the swimming track was recorded for 60 sec. The time spent in finding the original platform was also recorded. […]
Early of the fifth day: The platform was placed in the quadrant II and submerged beneath water level about 1 cm. The rats were separately sent to quadrant I and the time spent in finding the platform was recorded. […]

[2] = Stability in Hanks' balanced salt solution (HBSS); assay type: physicochemical; details: 37° C., relative to initial conc. in HBSS = 100.00
Experimental: as §1

- Conc. after 4-hour in Caco-2 cells (Caco-2 cell): 78.97
- Conc. at the lover layer (Caco-2 cell monolayer): 0.28
- Conc. after 4-hour in HBSS [2]: 98.62
Structure (SMILES): CC[C@H](C)[C@H](NC(=O)[C@H](CO)NC(=O)[C@@H](NC(=O)[C@@H]1CCCN1C(=O)[C@H](C)NC(=O)[C@H](CC(N)=O)NC(=O)c1ccccc1)C(C)C)C(=O)N1CCC[C@H]1C(=O)N[C@@H](CCC(N)=O)C(=O)O [BMEC-NAP0701, Benzoyl-NAPVSIPQ-OH]
- memory improving effect (time spent in finding the platform vs scopolamine-induced rats) [1]: memory improving effect similar to NAP in vivo
